Results as given in PubChem BioAssay AID179 (DTP/NCI, 2004).
Where “and” joins values, the source holds several entries; their conditions need not be identical. Identical values can stand only once. Calls of active or inactive are those of the source.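 Rule for the calls: active = compounds giving half or more protection of infected cells from virus-caused growth loss, again on retest; inactive = the rest.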

Test system: CEM cells HIV-1 protection, formazan growth assay
Assay: NCI AIDS Antiviral Assay
Conditions: for IC50: measured here: growth of uninfected CEM cells
How it was run: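 Screen of anti-HIV-1 activity in human CEM cells using a formazan-based growth measurement at five drug concentrations. Hits with 50% or greater protection were repeated, and confirmation required reproducible complete protection.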

| Compound | EC50 | IC50 | outcome |
| --- | --- | --- | --- |
| CCOC(=O)/C(C(=O)c1ccc[nH]1)=C1/CCCN1C | > 200 µM | 129 µM |  |
| CCCNC(=O)SCc1ccccc1 |  |  | inactive |
| CC(=O)Nc1ccc(C(=O)NN2C(=O)CSC2c2ccc(O)cc2)cc1 (configuration not stated) | > 36.3 µM | > 36.3 µM |  |
| COc1cc2c(c(OC)c1O)-c1ccc(OC)c(=O)cc1[C@@H](NC(=O)C(F)(F)F)CC2 | > 2 µM | 0.0363 µM |  |
| Cc1ccc(C)n1N1CCOCC1 | > 200 µM | 115 µM |  |
| CNc1c(Cl)cccc1S(=O)(=O)c1ccccc1[N+](=O)[O-] | 3.31 µM | > 200 µM |  |
| Cc1cn(C2CC(N=[N+]=[N-])C(COC(=O)CCCCCCCCCCCI)O2)c(=O)[nH]c1=O (configuration not stated) | 0.049 µM | 102 µM |  |
| CCC1OC(=O)CC(O)C(C)C(OC2OC(C)CC(N(C)C)C2O)C(CC=O)CC(C)C(=O)/C=C/C2(C)OC2C1C (configuration not stated) | > 200 µM | 33.9 µM |  |
| Cc1cc(=O)oc2cc(OCc3nc4ccccc4c(=O)[nH]3)ccc12 | > 107 µM | > 107 µM |  |
| CC(=O)Nc1cc(S(=O)(=O)O)cc2cc(S(=O)(=O)O)c(N=Nc3ccc(C(=O)Nc4ccc5cc(S(=O)(=O)O)ccc5c4)cc3)c(O)c12 |  |  | inactive |
| C/C(=N\NC(N)=O)c1cc2cc([N+](=O)[O-])ccc2oc1=O | > 70.8 µM | > 70.8 µM |  |
| CC1(c2ccc[n+](Cc3ccccc3)c2)OCCO1 | > 398 µM | 380 µM |  |
| N#C/C(=C\c1ccc2c(c1)OCO2)c1ccccc1 | > 200 µM | 41.7 µM and > 28.8 µM |  |
| CCOC(=O)/C=C1/Nc2cc(F)c(F)cc2NC1=O | > 200 µM | > 200 µM |  |
| Cc1cc(S(=O)(=O)Nc2nc(N)nc(N(C)C)n2)c(SCC(=O)O)cc1Cl | > 200 µM | > 200 µM |  |
| COc1ccc(-n2c(N)c(C#N)[nH]c2=O)cc1 | > 200 µM | > 200 µM |  |
| CC(=O)NC1C(OCc2ccccc2)OC(CO)C(O)C1OCC(=O)N1CCCC1C(=O)NC(CCC(=O)NCCCCCNc1c2ccccc2nc2cccc([N+](=O)[O-])c12)C(N)=O (configuration not stated) | > 200 µM | 0.209 µM |  |
| Cc1occc1C(=S)Nc1ccc(Cl)c(C(=O)OC2CCCCC2)c1 | 0.012 µM | 7.24 µM |  |
| O=c1c2ncn(CCCl)c2n(-c2ccccc2)c(=S)n1-c1ccccc1 | > 200 µM | > 200 µM |  |
| [N-]=[N+]=NC1(c2ccccc2)C(=O)Nc2ccccc2C1=O (configuration not stated) | > 58.9 µM | 30.2 µM |  |
| CN(C)CC1CCC/C(=C\c2ccc(Cl)cc2)C1=O (configuration not stated) | > 20 µM | 0.977 µM |  |

| Compound | EC50 | IC50 | outcome |
| --- | --- | --- | --- |
| COc1cc(Br)c(C=Nc2cccc3ccc(OS(=O)(=O)c4cccc([N+](=O)[O-])c4)cc23)cc1OC |  |  | inactive |
| CC1CC(=O)Nc2cc(C(F)(F)F)ccc2N1 (configuration not stated) | > 200 µM | > 200 µM |  |
| COc1ccc(SSc2ccc(OC)cc2C(=O)O)c(C(=O)O)c1 | > 200 µM | > 200 µM |  |
| CC12CCCCC1=C(F)C(F)(F)S2 (configuration not stated) | > 200 µM | 115 µM |  |
| O=C(O)C1C2CCC(O2)C1C(=O)O (configuration not stated) | > 1350 µM | > 1350 µM |  |
| C[n+]1c(-c2ccc(/C=N/Nc3ccnc(N/N=C/c4ccc(-c5cn6ccsc6[n+]5C)cc4)n3)cc2)cn2ccsc21 | 11.5 µM | 41.7 µM |  |
| CC(C)(C)OC(=O)NC(CSSCC(NC(=O)OC(C)(C)C)C(=O)O)C(=O)O (configuration not stated) | > 200 µM | > 200 µM |  |
| COC1(OC)CC2OC1C1N=NN(C(=O)OC(C)(C)C)C21 (configuration not stated) | > 33.1 µM | > 33.1 µM |  |
| C=C1C(=O)O[C@H](c2ccoc2)C[C@@H]1[C@@]1(C)CCCC2(C)C(=O)OCC21 (some centres not stated) | > 145 µM | 95.5 µM |  |
| COC1=C(OC)C(=O)C2=C(OCCCO2)C1=O | > 389 µM | 2 µM |  |
| Cn1c(Cl)cn2c3nc4ccccc4nc3c(=O)c(C#N)c12 |  |  | inactive |
| O=C(O)/C=C/CCC1SCC2NC(=O)NC21 (configuration not stated) | > 107 µM | > 107 µM |  |
| Cc1cc(Cl)ccc1N=NC(=O)NNc1ccc(Cl)cc1C | > 200 µM | 52.5 µM |  |
| FC(F)(F)c1ccc(C2ON=C(c3ccccc3)N2C23CC4CC(CC(C4)C2)C3)cc1 (configuration not stated) | > 200 µM | > 200 µM |  |
| O=C(OCC(OC(=O)c1ccccc1)C1CC(C(O)C2CCCCC2)C(=O)O1)c1ccccc1 (configuration not stated) | > 200 µM | 21.9 µM |  |
| CC(=O)c1ccc(OCC(O)CO)cc1 (configuration not stated) | > 617 µM | > 617 µM |  |
| CCOC(=O)C(O)(NC(C)=O)C(F)(F)F (configuration not stated) | > 200 µM | > 200 µM |  |
| COc1cccc2c1CCc1c(-c3ccc(F)cc3)cc(-c3ccc4ccccc4n3)nc1-2 | > 200 µM | > 200 µM |  |
| CC(=O)/C(=C/n1c(=S)[nH]c2ccccc21)C(=O)Nc1ccccc1C | > 200 µM | > 200 µM |  |
| Cc1cn(C2CC(N=[N+]=[N-])C(COC(=O)CCOCCCCCCCCN=[N+]=[N-])O2)c(=O)[nH]c1=O (configuration not stated) | 0.00631 µM | 64.6 µM |  |
| COC(=O)Nc1nc2ccc(C(=O)c3ccc(F)cc3)cc2[nH]1 | > 2 µM | 0.0871 µM |  |

| Compound | EC50 | IC50 | outcome |
| --- | --- | --- | --- |
| O=c1nc2[nH]nc(-c3ccccc3)c2n[nH]1 |  |  | inactive |
| CCOC12OC3=C(CC1CC1=C(CCC1=O)O2)C(=O)CC3 (configuration not stated) |  |  | inactive |
| CCCCCCCCCCCCCC1CCC(CC)N1 (configuration not stated) | > 331 µM | > 331 µM |  |
| C[C@]12CC[C@H](O)C[C@@H]1CC[C@@H]1[C@@H]2CC[C@]2(C)c3nc4ccccc4cc3C[C@@H]12 | > 200 µM | 8.13 µM |  |
| COC(=O)/C=C(C)/C=C/c1c(C)c(C(C)=O)c(C)n1C | > 129 µM | > 129 µM |  |
| c1ccc2oc(NCCSSCCNc3nc4ccccc4o3)nc2c1 | > 200 µM | 10.5 µM |  |
| CCNC(=O)C(O)C1(O)CCC2[C@@H]3CCC4=CC(=O)C=C[C@]4(C)C3C(O)C[C@@]21C (some centres not stated) |  |  | inactive |
| CC1=CC(C)C(=O)N(C)C(C)=C1 (configuration not stated) | > 1510 µM | 457 µM |  |
| NC(=O)C1=CC2C3C=CC2(O)C(=O)OC3O1 (configuration not stated) | > 1120 µM | 1.17 µM |  |
| Cc1cccc2c(=O)c3c(O)cc4c(c3n(C)c12)C=CC(C)(C)O4 | > 200 µM | 14.8 µM |  |
| COC(=O)[C@H](Cc1c[nH]c2ccccc12)NP(=O)(OCCC#N)OCC1OC(n2cc(C)c(=O)[nH]c2=O)CC1N=[N+]=[N-] (some centres not stated) | 55 µM | 186 µM |  |
| c1ccc(-c2cnc3cccnc3n2)cc1 | > 200 µM | 174 µM |  |
| CCOC(=O)C(CCC(N)=O)(CCC(=O)OC)C(=O)OCC | > 200 µM | > 200 µM |  |
| COC(=O)c1cc(C(=O)OC)c(CC(=O)C(=O)Nc2c(C(C)C)cccc2C(C)C)nc1CC(=O)C(=O)Nc1c(C(C)C)cccc1C(C)C | > 200 µM | > 200 µM |  |
| CCN(CC)c1c(C(=O)/C=C/c2ccc(OC)cc2)c(-c2ccccc2)nn(C)c1=O | > 9.12 µM | > 9.12 µM |  |
| CO[C@H]1ON=C(c2c(C)cc(C)cc2C)[C@@H]1C1(c2ccccc2)ON=C(c2c(C)cc(C)cc2C)O1 (some centres not stated) | > 200 µM |  |  |
| O=C(NCCN1CCCCC1)c1ccc(Br)cc1 | > 200 µM | > 200 µM |  |
| Cn1c2c(c3ccccc31)CC(=O)N1CCCC(C1)CC21OCCO1 (configuration not stated) | > 200 µM | > 200 µM |  |
| CC1=NN(c2ccccc2)C(=O)C1N=Nc1ccc(Br)cc1C (configuration not stated) | > 17.4 µM | > 17.4 µM |  |
| CC1C(=O)N2C(=O)C(C)C(C)C(=O)N2C(=O)C1C (configuration not stated) | > 53.7 µM | > 53.7 µM |  |
| Nc1ccc(C2=N/C(=C\c3cccc(N)c3)C(=O)O2)cc1 |  |  | inactive |
